Assay results reported in patent US5760285A, “Phosphonyldipeptides useful in the treatment of cardiovascular diseases” (priority 1994, dated 1998).

What was measured:
NEP = target: T1, NEP (Rattus norvegicus, UniProt P07861); experiment: "In vitro" NEP-inhibitory activity (rat kidney cortex membranes, [3H][Leu5]-enkephaline); assay type: biochemical; conditions: membranes from rat kidney cortex
T1 construct: Membranes from kidney cortex were prepared according to the following procedure; from tissue; host or cells: rat kidney cortex membranes
T1 sequence (P07861 1-750): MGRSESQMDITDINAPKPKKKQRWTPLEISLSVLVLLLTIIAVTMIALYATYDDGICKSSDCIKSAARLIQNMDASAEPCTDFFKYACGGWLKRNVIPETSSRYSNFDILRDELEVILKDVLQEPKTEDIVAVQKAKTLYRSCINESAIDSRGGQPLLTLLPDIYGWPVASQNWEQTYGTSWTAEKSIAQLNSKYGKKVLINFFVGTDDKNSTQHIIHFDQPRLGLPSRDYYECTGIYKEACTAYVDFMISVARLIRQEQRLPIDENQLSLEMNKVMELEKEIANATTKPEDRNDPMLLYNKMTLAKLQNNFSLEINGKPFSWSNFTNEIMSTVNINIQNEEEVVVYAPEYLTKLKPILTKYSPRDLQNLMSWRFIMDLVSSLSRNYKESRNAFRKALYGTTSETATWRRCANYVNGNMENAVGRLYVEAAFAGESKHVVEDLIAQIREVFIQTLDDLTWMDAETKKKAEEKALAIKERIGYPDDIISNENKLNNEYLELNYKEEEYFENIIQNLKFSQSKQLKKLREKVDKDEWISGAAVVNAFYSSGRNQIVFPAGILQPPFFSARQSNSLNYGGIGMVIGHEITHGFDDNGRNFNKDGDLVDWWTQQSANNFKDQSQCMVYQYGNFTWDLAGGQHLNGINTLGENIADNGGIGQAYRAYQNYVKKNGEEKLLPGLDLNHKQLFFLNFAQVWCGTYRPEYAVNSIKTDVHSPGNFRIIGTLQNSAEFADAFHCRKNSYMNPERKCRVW
Experimental: a) NEP-inhibitory activity
Membranes from kidney cortex were prepared according to the following procedure.
Cortex was carefully dissected, finely minced and suspended in a homogenization buffer (10 mM sodium phosphate pH 7.4 containing 1 mM MgCl2, 30 mM NaCl, 0.02% NaN3) 1:15 weight/volume.
The tissue was then homogenized for 30 seconds using an Ultra-Turrax homogenizer.
The membranes were collected from the buffer/sucrose interface, washed twice with 50 mM TRIS/HCl buffer (pH 7.4) and resuspended into the same buffer for storage.
The membranes were stored in small aliquots at -80° C. until use.
The NEP-inhibitory activity was evaluated by using the following method.
Incubation (20 minutes at 30° C.) was stopped by adding HCl 0.1M (100 μl).

ACE = target: T2, ACE (Oryctolagus cuniculus, UniProt P12822); experiment: "In vitro" ACE-inhibitory activity (FAPGG substrate); assay type: biochemical; conditions: ACE purified by lung rabbit; tested as lithium salts
T2 construct: ACE (250 mU/ml purified by lung rabbit, EC 3.4.15.1 SIGMA); purchased SIGMA; host or cells: rabbit lung
T2 sequence (P12822 34-1310): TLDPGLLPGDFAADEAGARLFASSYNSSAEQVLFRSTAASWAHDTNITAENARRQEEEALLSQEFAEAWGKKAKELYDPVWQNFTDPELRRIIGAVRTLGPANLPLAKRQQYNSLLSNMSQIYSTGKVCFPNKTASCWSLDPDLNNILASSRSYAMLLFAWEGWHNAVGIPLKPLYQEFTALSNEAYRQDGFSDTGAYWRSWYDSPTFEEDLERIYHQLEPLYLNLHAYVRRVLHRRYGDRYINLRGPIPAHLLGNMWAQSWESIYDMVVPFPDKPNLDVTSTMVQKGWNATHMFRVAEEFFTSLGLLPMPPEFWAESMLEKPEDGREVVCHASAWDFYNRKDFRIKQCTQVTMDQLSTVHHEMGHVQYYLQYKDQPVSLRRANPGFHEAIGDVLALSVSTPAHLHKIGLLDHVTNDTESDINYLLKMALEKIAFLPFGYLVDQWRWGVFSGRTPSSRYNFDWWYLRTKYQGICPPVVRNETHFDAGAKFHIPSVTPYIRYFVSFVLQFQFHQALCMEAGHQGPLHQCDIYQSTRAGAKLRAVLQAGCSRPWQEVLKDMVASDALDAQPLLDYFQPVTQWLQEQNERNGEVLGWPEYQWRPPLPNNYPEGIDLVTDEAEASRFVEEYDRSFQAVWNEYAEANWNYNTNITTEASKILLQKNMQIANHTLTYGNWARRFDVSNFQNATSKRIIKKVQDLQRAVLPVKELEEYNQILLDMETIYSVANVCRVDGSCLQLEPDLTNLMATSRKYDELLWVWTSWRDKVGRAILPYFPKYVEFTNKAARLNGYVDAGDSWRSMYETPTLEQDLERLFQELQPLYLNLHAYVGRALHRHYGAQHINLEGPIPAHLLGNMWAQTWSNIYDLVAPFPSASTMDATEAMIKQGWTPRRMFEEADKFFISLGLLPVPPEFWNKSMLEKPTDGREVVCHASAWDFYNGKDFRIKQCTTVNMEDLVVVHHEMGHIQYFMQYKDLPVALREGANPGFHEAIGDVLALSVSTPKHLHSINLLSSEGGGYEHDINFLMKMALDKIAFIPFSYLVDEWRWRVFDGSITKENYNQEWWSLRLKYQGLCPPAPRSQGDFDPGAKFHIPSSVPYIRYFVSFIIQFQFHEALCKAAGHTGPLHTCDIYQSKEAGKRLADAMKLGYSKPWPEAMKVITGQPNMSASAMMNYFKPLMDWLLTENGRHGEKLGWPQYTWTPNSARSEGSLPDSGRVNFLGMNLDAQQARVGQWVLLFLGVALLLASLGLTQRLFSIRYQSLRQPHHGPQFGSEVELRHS
Experimental: b) ACE-inhibitory activity
The reaction was started by adding furylacryloylphenylalanylglycylglycine 0.8 mM (FAPGG-SIGMA).
Contemporaneously, by using a Beckman DU-50 spectrophotometer provided with a program for calculating delta A/minutes and regression coefficients of the enzyme kinetics curves, the absorbance at 340 nm was recorded in continuo for 5 minutes.

NEP-inhibitory activity IC50 (nM) (NEP; tested as lithium salts) | NEP inhibition (NEP; at a concentration corresponding to 10^-8 M) | IC50 (ACE) | Structure (SMILES)
not active | – | – | C[C@H](CS)C(=O)N1CCC[C@H]1C(=O)O [Captopril]
– | 42% | 20 nM | O=C([O-])[C@H](Cc1ccccc1)NC(=O)[C@H](Cc1ccccc1)NP(=O)(O)CCCCc1ccccc1.O=C([O-])[C@H](Cc1ccccc1)NC(=O)[C@H](Cc1ccccc1)NP(=O)(O)CCCCc1ccccc1.[Li+].[Li+] [Compound R-5, N-[N'-(4-phenyl)butylphosphonyl-L-phenylalanyl]-L-phenylalanine dilithium salt]
